Columns and labels:
[1] = tested on: DLD1; assay: Cell viability assay (MTT), DLD1; format: cell-based; details: Homo sapiens, DLD-1, 72 h, 10% FBS, 3-day treatment, 1% DMSO
Procedure: (§1) Table 14: 3-day cell viability assay (MTT) in the presence of 10% Fetal Bovine Serum and 1% DMSO, in DLD1, HCT116, MDA-MB-231, MCF7 and HeLa cells. 7.5 10^3 to 1.5 10^4 cells were seeded in 48-well plates in growth medium containing 10% FBS, with or without various concentrations of test compounds. Data were analyzed and IC50s were calculated from dose-response curves using GraphPad Prism. Results summarized in the tables are mean±SEM of 1 to 7 independent experiments.
(§2) In order to determine a compound's effect on cell viability, microculture tetrazolium assays (MTT) were performed as described by Carmichael et al. (1996) with modifications. Four human tumoral cell lines, namely HCT116 colon adenocarcinoma, H460 lung carcinoma, MCF-7 and MDA-MB-231 breast carcinoma cell lines, DLD1 colorectal adenocarcinoma, HeLa adenocarcinoma, HepG2 hepatocellular carcinoma. 3 immortalized but non tumorigenic cell lines, namely NIH3T3 mouse fibroblasts (American Type Culture Collection) and primary hepatocytes (Biopredic international), cultured according to their recommendations together with Human Microvasculature Endothelial Cell line HMEC1 (National Center for Infectious Diseases). Briefly, cells were seeded in 48-well plates 24 hours before drug addition. Cells were treated with 0 to 200 μM (11 concentrations) of compound solubilized in DMSO, adjusting the final concentration of DMSO to 1% in the well. 16 hours, and three or six days after treatment, 0.5 mg/ml MTT (Sigma) was added to the medium and cells were incubated for 1-5 hours at 37° C. before solubilization of formazan crystals in 100% DMSO. Absorbance was measured using a spectrophotometer at a wavelength of 550 nm. Data was analyzed using the GraphPad Prism software (GraphPad Software, Inc.), and IC50 (dose leading to 50% cell death) was calculated from the dose-response curves.

[2] = tested on: HCT116; assay: Cell viability assay (MTT), HCT116; format: cell-based, human; details: 1% DMSO
Procedure: as §1, with “Table 12: 6-day” for “Table 14: 3-day”, “in HMEC1,” for “in DLD1,”, “and NIH3T3 cell lines. 3” for “and HeLa cells. 7.5”, “to 15 10^3” for “to 1.5 10^4”, “compounds. Cell cultures were fed every 3 days with the appropriate media. Cell viability was determined on day 6.” for “compounds.”, “to 8” for “to 7”
(§3) Table 13: 6-day cell viability assay (MTT) in the presence of 0.5% Fetal Bovine Serum and 1% DMSO, in HCT116 and MDA-MB-231 cell lines. 7.5 10^4 to 15 10^4 cells were seeded in 48-well plates in growth medium containing 10% FBS, with or without various concentrations of test compounds. Cell cultures were fed every 3 days with the appropriate media. Cell viability was determined on day 6. Data were analyzed and IC50s were calculated from dose-response curves using GraphPad Prism. Results summarized in the tables are mean±SEM of 1 to 2 independent experiments.
as §1
(§4) Table 15: 16-hour cell viability assay (MTT) in the presence of 10% Fetal Bovine Serum and 1% DMSO, in HCT116, MDA-MB-231, NIH3T3, HepG2 and primary hepatocytes. 5 10^4 to 10 10^4 cells were seeded in 48-well plates in growth medium containing 10% FBS, with or without various concentrations of test compounds. Data were analyzed and IC50s were calculated from dose-reponse curves using GraphPad Prism. Results summarized in the tables are mean±SEM of 1 to 2 independent experiments.
as §2

[3] = tested on: HMEC-1 cells; assay: Tubule formation (tubulogenesis) assay on Matrigel; format: cell-based, Human
Procedure: FIG. 5: Tubulogenesis assay (number of junctions). 2 10^4 Cells were plated on Matrigel-coated wells as described in the material and methods. Pictures of each well were taken after a 7-hours incubation. The “number of junctions” parameter was quantitated using the AngioSys software and data were analyzed using GraphPad Prism for IT50 calculation. Values represent the mean±SEM of 2 to 30 independent experiments.
The endothelial cell tube formation assay, or tubulogenesis assay, is an in vitro assay that is widely accepted to accurately reflect number of terminal stages of the angiogenic process such as attachment, migration and differentiation into tubular structures. In this model, endothelial cells are cultured on a monolayer of reconstituted basement membrane components (Matrigel) and form, in a few hours, capillary-lilke structure. Therefore, this system is a useful and powerful tool for rapidly screening anti-angiogenic agents by monitoring inhibition of endothelial cells morphogenesis on extracellular matrix.
HMEC-1 cell line is cultured in MCDB-131 medium (Sigma) supplemented with 15% FBS, 10 ng/ml recombinant human epidermal growth factor (Invitrogen) and 1 μg/ml hydrocortisone. Cells are cultured to 70-80% confluence. A 96-well plate was coated with Matrigel® Basement Membrane Matrix (Becton Dickinson). 2 10^4 HMEC-1 cells were seeded into each well. The test or control compounds were diluted in DMSO and added to the coated plate. The plate was subsequently incubated for 6 to 8 hours at 37° C., 5% CO2 atmosphere to allow tubule formation. The cells were then incubated with 1.25 μg/ml Calcein AM for 15 minutes at 37° C., 5% CO2. Pictures of each well were taken using a fluorescent microscope and a digital camera (Nikon Coolpix 990). Images were analysed using AngioSys software (TCS Cellworks) that allows quantification of the total tubule length and of the number of junctions, two parameters representative of tubule formation/disruption. Data was analyzed using the GraphPad Prism software, and IT50s (dose leading to 50% inhibition of tubulogenesis) was calculated.

[4] = tested on: NIH 3T3; assay: Cell viability assay (MTT), NIH 3T3; format: cell-based, mouse; details: 10% FBS, 6-day treatment, 1% DMSO
Procedure: (§5) Table 12: 6-day cell viability assay (MTT) in the presence of 10% Fetal Bovine Serum and 1% DMSO, in HMEC1, HCT116, MDA-MB-231, MCF7 and NIH3T3 cell lines. 3 10^3 to 15 10^3 cells were seeded in 48-well plates in growth medium containing 10% FBS, with or without various concentrations of test compounds. Cell cultures were fed every 3 days with the appropriate media. Cell viability was determined on day 6. Data were analyzed and IC50s were calculated from dose-response curves using GraphPad Prism. Results summarized in the tables are mean±SEM of 1 to 8 independent experiments.
as §4, §2

[5] = tested on: MDA-MB-231; assay: Cell viability assay (MTT), MDA-MB-231; format: cell-based, human; details: 10% FBS, 6-day treatment, 1% DMSO, read-out: IC50 μM, MDA-MB-231
Procedure: as §5, §3, §1, §4, §2

[6] = tested on: HMEC1; assay: Cell viability assay (MTT), HMEC1; format: cell-based, Human; details: 10% FBS; for IC50: MTT, 6-day treatment, 1% DMSO
Procedure: as §5, §2

[7] = tested on: MCF7; assay: Cell viability assay (MTT), MCF7; format: cell-based; details: Homo sapiens, MCF7, 144 h, 10% FBS, 6-day treatment, 1% DMSO
Procedure: as §5, §1, §2

[8] = tested on: NIH3T3; assay: Boyden chamber migration assay, NIH3T3; format: cell-based, mouse; details: FBS as chemoattractant
Procedure: (§6) FIG. 4: Migration assays. (A) Wound healing assay in REF cells. 7.6 10^4 cells were plated on coverslips 48 hours before the experiment. The cells were pre-treated for 30 min. with the compounds, and then a scrape was done using a pipette tip. The scraped coverslips in treatment medium were put under a thermostated microscope coupled to a video camera. Movies were analyzed as described in material and methods, and velocity and total distance covered by the cells were evaluated. Bar graphs represent the mean±SEM of 2 to 4 experiments. (B) Boyden chamber migration assay in HMEC1, NIH3T3 and MDA-MB-231 cells. 5 10^4 to 7.5 10^4 Cells, resuspended in culture medium with or without FBS and with different compound concentrations, were seeded in the upper Boyden blind well on top of 8 μm pore-sized filters. The ability of the cells to migrate through the filter was assayed in the absence or presence of FBS in the lower Boyden chamber. After 16 hours incubation, the medium was removed and replaced with calcein-AM containing medium. After labeling, cells were washed with HBSS and fluorescence was read in a fluorescence plate reader. Fluorescence values were normalized against the fluorescence obtained for the 1% DMSO control. The data plotted are the means±SEM of 2 to 4 independent experiments.
(§7) An essential characteristic of malignant cells is their ability to migrate, invade host tissues and to produce metastases. In order to evaluate the capacity of one compound to affect the ability of tumoral cells to migrate, migration assays were performed using highly invasive tumoral cells MDA-MB-231, endothelial cells HMEC1 or fibroblastic cells NIH3T3. This assay was performed using Falcon HTS Fluoroblock inserts. Culture medium containing Fetal Bovine Serum (FBS; which is used as a chemoattractant) was added to the plate wells and 2 10^4 to 7.5 10^4 cells resuspended in medium without FBS and with 0.1% BSA were added to each insert well. The compound of interest was added to the medium in both the upper and the lower chambers. Plates were incubated for 16 hours at 37° C. Following incubation, the medium was removed from the upper chamber and the entire insert plate was transferred to a second 24-well plate containing 4 μg/ml Calcein-AM™ in medium containing 0.1% BSA. The plates were incubated for one hour at 37° C., rinsed with Hanks Buffered Saline (HBSS). Fluorescence data were collected using Fluoroskan Ascent FL fluorescence plate reader at an excitation wavelength (Ex) of 485 nm and emission wavelength (Em) of 517 nm. Only those labelled cells that passed through the Matrigel layer and the membrane were detected. Data were analyzed using the GraphPad Prism software and IM50s (dose at which 50% inhibition of cell migration is observed) were calculated.

[9] = tested on: MDA-MB-231; assay: Boyden chamber migration assay, MDA-MB-231; format: cell-based, human; details: FBS as chemoattractant; 16 hours
Procedure: as §6, §7

[10] = Homo sapiens, MDA-MB-231, 144 h
[11] = Homo sapiens, HCT-116, 144 h, 10% FBS, 6-day treatment

| Compound | IC50 ([4]; Mus musculus, NIH3T3, 144 h) | IC50 [5] | IC50 [5, 10] | IC50 ([6]; Homo sapiens, HMEC-1, 144 h) | IC50 ([2]; 10% FBS, 6-day treatment) | IC50 [2, 11] | IC50 [6] | also measured |
| --- | --- | --- | --- | --- | --- | --- | --- | --- |
| O=c1[nH]cc(F)c(=O)[nH]1 [5FU, 5-FluoroUracile, reference compound] |  |  |  |  |  |  |  | IC50 [1]: 5.44 µM; IC50 ([2]; Homo sapiens, HCT-116, 72 h, 10% FBS, 3-day treatment): 7.83 µM |
| O=c1cc(CN2CCOCC2)occ1OCc1ccc(CSc2ccnc3cc(C(F)(F)F)ccc23)cc1 [EHT 2218, 5-((4-((7-(Trifluoromethyl)quinolin-4-ylthio)methyl)phenyl)methoxy)-2-(morpholinomethyl)-4H-pyran-4-one] | 26 µM | 5 µM | < 9 µM | 19.3 µM | 3.7 µM | < 4 µM |  | fold more active than reference compound CAI in tubulogenesis ([3]; HMEC1 on Matrigel): 4 fold; IC50 ([3]; Homo sapiens, HMEC-1, HMEC1 on Matrigel, 6 to 8 hours, read-out: IC50, tubulogenesis (number of junctions)): 30.8 µM; IC50 ([2]; Homo sapiens, HCT-116, 144 h, 0.5% FBS, 6-day treatment): 3.3 µM |
| CCN(CC)C(=O)N1CCN(Cc2cc(=O)c(OCCCCCSc3ccnc4cc(C(F)(F)F)ccc34)co2)CC1 [EHT 5743, 4-((5-(5-(7-(Trifluoromethyl)quinolin-4-ylthio)pentyloxy)-4-oxo-4H-pyran-2-yl)methyl)-N,N-diethylpiperazine-1-carboxamide] | 2.4 µM | 8.8 µM | < 9 µM | < 10 µM |  |  | 8 µM | difference of activity in HMEC1 cells as compared to HCT116 cells ([6]; MTT 6 days, compounds most active in HCT116): 20 fold; IC50 [7]: 1.2 µM |
| O=c1cc(CN2CCOCC2)occ1OCCCCCSc1ccnc2cc(C(F)(F)F)ccc12 [EHT 7168, 2-Morpholin-4-ylmethyl-5-[5-(7-trifluoromethyl-quinolin-4-ylsulfanyl)-pentyloxy]-4H-pyran-4-one] |  | 9.8 µM |  |  | 4.9 µM |  | 25.2 µM | IC50 ([8]; Mus musculus, NIH3T3, 16 h): 16.4 ± 3.4 µM; IC50 [4]: 12.7 µM |
| CN1CCN(Cc2cc(=O)c(OCCCCCSc3ccnc4cc(C(F)(F)F)ccc34)co2)CC1 [EHT 7365, 2-(4-Methyl-piperazin-1-ylmethyl)-5-[5-(7-trifluoromethyl-quinolin-4-ylsulfanyl)-pentyloxy]-4H-pyran-4-one] | 6.5 µM |  |  |  | 5.4 µM |  | 8.3 µM | IC50 ([8]; 16 hours): 6.1 ± 1.1 µM; IC50 [9]: 3.9 ± 0.8 µM |
| Cc1[nH]c(/C=C2\C(=O)Nc3ccccc32)c(C)c1CCC(=O)O [SU-6668, reference compound] | 35.7 µM |  | 22.5 µM | 36 µM |  | 18.9 µM |  | potency in tubulogenesis assay ([3]; VEGF and FGF free conditions): weakly potent |

From patent US7514432B2, “Compounds and methods of treating cell proliferative diseases, retinopathies and arthritis” (Exonhit Therapeutics SA, priority 2003, dated 2009)
